This is an account of results in publication PMC5054060, “Probing the nucleotide-binding activity of a redox sensor: two-component regulatory control in chloroplasts” (Photosynthesis Research, 2016).

The experiment concerns the target T1, CSK_T (truncated Arabidopsis CSK, amino acids 301 to 611) (Arabidopsis thaliana, UniProt F4HVG8).
T1 sequence (F4HVG8 301-611): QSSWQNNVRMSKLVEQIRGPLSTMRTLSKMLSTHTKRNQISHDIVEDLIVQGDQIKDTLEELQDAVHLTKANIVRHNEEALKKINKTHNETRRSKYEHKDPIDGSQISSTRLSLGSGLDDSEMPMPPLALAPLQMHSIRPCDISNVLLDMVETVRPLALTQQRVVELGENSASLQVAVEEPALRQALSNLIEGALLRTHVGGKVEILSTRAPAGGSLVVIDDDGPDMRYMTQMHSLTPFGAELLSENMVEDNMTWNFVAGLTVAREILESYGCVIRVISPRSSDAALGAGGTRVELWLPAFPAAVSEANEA
As to the kind of experiment: displacement of TNP-ATP fluorescence, […] nm. Particulars: 10 mM NaCl, 10 mM Tris-HCl pH 8; 1 µM TNP-ATP; 2 µM protein (figure legend: 1 µM); competitive displacement, no metal added; read-out: Binding affinity / ATP (mm).

On to `Nc1ncnc2c1ncn2[C@@H]1O[C@H](COP(=O)(O)OP(=O)(O)OP(=O)(O)O)[C@@H](O)[C@H]1O` [ATP], for which the Kd came out at 4.97 mM.
